Reference: patent US20070213282A1, “Peroxisome proliferator-activated receptor (PPAR) activator, and drugs, supplements, functional foods and food additives using the same” (ARKRAY, Inc., priority 2004, published 2007)

Tests used:
[1] = test system: adiponectin mRNA in 3T3-L1; test: adiponectin mRNA expression in differentiating 3T3-L1 preadipocytes (Light Cycler, ratio to 36B4); type: cell-based; conditions: for Adiponectin mRNA expression amount (ratio to 36B4): 3T3-L1, 7 days after differentiation induction, non-treatment control = 100, average ± standard error
Procedure: (§1) (Differentiation Induction of Preadipocyte)
(§2) 1. Differentiation Induction Medium (0.25 μM DEX, 0.5 mM MIX, 10 μg/ml insulin/10% FBS/DMEM)
(§3) 55 ml of FBS (fetal bovine serum (available from GIBCO)) was added to 500 ml of DMEM (available from SIGMA) so as to prepare 10% FBS/DMEM. To this 10% FBS/DMEM, 138.75 μl of 1 mM DEX (dexamethasone)/DMSO (available from Nacalai Tesque, Inc.) and 555 μl of 10 mg/ml insulin/PBS (available from SIGMA) were added. Note here that the insulin/PBS was obtained by adding 1 N HCl to PBS in advance so as to make the solution acidic enough to allow insulin dissolution and then dissolving insulin. MIX (3-isobutyl-1-methylxanthine) (available from Nacalai Tesque, Inc.) was added to a necessary amount of the above-described medium immediately before use in such a manner as to achieve 0.5 mM concentration, thereby preparing a differentiation induction medium. Since MIX was very difficult to dissolve, it first was dissolved in a small amount of 99.5% ethanol and then added to 10% FBS/DMEM.
2. Differentiation Promotion Medium (5 μg/ml Insulin/10% FBS/DMEM)
A differentiation promotion medium was prepared by adding 277.5 μl of 10 mg/ml insulin/PBS to 555 ml of 10% FBS/DMEM.
Next, cultured preadipocytes 3T3-L1 were thawed, inoculated in a 100 mm dish and cultured until the 3T3-L1 cells reached about 80% confluence. A single dish of 3T3-L1 that had reached about 80% confluence was subcultured to a single 6-well plate and further cultured until the 3T3-L1 cells reached confluence in the 6-well plate, and then the medium was replaced with the differentiation induction medium, followed by differentiation induction. 48 hours later, the medium was replaced with the differentiation promotion medium, and thereafter, the medium was replaced with the differentiation promotion medium every two days. 7 days after the initiation of the differentiation induction, mRNA was extracted using a Sepasol-RNA I Super (trade name; available from Nacalai Tesque, Inc.), and the mRNA expression amounts of 36B4, aP2 and adiponectin, which were indicators of an early period of adipocyte differentiation, were measured using a Light Cycler™.
(§4) The medium was removed from the above-described Swell plate, 1 ml of Sepasol-RNA I Super (available from Nacalai Tesque, Inc.) was added to each well, and pipetting was repeated several times so as to disperse the cells. […] The resultant precipitate (total RNA) was dried and then dissolved in 20 μl of nuclease free water, and the concentration of mRNA was measured using Nanoprop (available from SCRUM Inc.).
(§5) The extracted and measured mRNA solution was adjusted to have an mRNA concentration of 1 μg/μl. […]

[2] = test system: spontaneously diabetic mice (KK-A^y); test: adiponectin secretion amount in serum of spontaneously diabetic mice (KK-Ay), ELISA; type: in vivo
Text: The present example verified the diabetes relieving-effect of nobiletin through an experiment using spontaneously diabetic mice (KK-A^y).
First, twelve spontaneously diabetic mice (6-week old, female) were fed preliminarily with normal diet for one week. Next, the mice were divided into two groups, namely, a control group and a NOB group (n=6) such that the average weights of these two groups were the same. Then, the mice of the control group were fed with high-fat diet only, whereas the mice of the NOB group were fed with high-fat diet containing 0.02% nobiletin. 27 days or 28 days after the initiation of feeding, serum was collected from these mice. […]
Only the strips of the antibody plates necessary for the analysis were taken out. […] Thereafter, 100 μl of the standard solutions with respective concentrations and 100 μl of the diluted specimen solutions were added to the individual wells and measured in duplicate. Note here that the standard solutions always were measured for each measurement and each plate. […] After 100 μl of the substrate solution was added to each well of the antibody plate and allowed to stand still for reaction for 15 minutes at room temperature, 100 μl of the reaction stop solution was added to each well of the antibody plate, and then the absorbance at 450 nm in each well was measured with a plate reader. […]

aP2 mRNA in 3T3-L1 = test: aP2 mRNA expression in differentiating 3T3-L1 preadipocytes (Light Cycler, ratio to 36B4); type: cell-based; conditions: 3T3-L1, 7 days after differentiation induction, non-treatment control = 100, average ± standard error
Procedure: as §1, §2, §3
2. Differentiation Promotion Medium (5 μg/ml Insulin/10% FBS/DMEM) […]
Next, cultured preadipocytes 3T3-L1 were thawed, inoculated in a 100 mm dish and cultured until the 3T3-L1 cells reached about 80% confluence. […] 7 days after the initiation of the differentiation induction, mRNA was extracted using a Sepasol-RNA I Super (trade name; available from Nacalai Tesque, Inc.), and the mRNA expression amounts of 36B4, aP2 and adiponectin, which were indicators of an early period of adipocyte differentiation, were measured using a Light Cycler™.
as §4, §5

[3] = biological target: T1, human PPARγ ligand-binding domain (Homo sapiens, UniProt P37231); test: PPARγ ligand activity, GAL4-hPPARγ luciferase reporter assay in CV-1 cells; type: cell-based; conditions: for PPARγ ligand activity: luciferase activity relative to non-treatment control (DMSO) = 100, average ± standard error, n=4
T1 construct: expressed in transfected cells; host or cells: CV-1 cells (African green monkey kidney)
T1 sequence (P37231 204-505): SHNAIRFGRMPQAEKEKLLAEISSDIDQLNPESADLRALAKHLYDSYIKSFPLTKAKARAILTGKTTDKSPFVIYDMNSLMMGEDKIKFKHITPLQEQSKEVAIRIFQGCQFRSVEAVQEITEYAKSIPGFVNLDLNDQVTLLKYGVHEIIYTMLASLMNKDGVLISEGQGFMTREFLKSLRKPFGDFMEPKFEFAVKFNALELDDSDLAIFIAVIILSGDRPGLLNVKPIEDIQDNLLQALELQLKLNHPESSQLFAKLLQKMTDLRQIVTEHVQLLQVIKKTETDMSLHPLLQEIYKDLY
Procedure: First, CV-1 cells (cultured cells derived from kidneys of male African green monkeys) were inoculated on 24-well culture plates so as to be […] and cultured at 37° C. in 5% CO2 for 24 hours. As a medium, DMEM (Dulbecco's Modified Eagle Medium; available from GIBCO) containing 10% FBS (fetal bovine serum) and a 10 mg/ml penicillin streptomycin solution was used. Next, using the Lipofectamine system (Invitrogen Corporation), pM-hPPARγ and p4×UASg-tk-luc were transfected into the cultured CV-1 cells. The above-noted pM-hPPARγ was a vector for expressing fusion protein containing residues 1-147 of GAL4 binding domain and residues 204-505 of human PPARγ ligand-binding domain, and the above-noted p4×UASg-tk-luc was a reporter plasmid containing four copies of an upstream activating sequence (UAS) for GAL4 binding domain and a thymidine kinase gene promoter upstream of a luciferase gene. After the transfection, the cells were cultured for about 24 hours, and then, the media for the cells were changed to media containing nobiletin at respective concentrations (0.1, 1.0, and 50 μM) or media for non-treatment control, followed by an additional 24 hour culture. The above-noted media containing nobiletin were prepared by adding nobiletin dissolved in dimethyl sulfoxide (DMSO) to the media, whereas the media for non-treatment control were prepared by adding only DMSO to the media. After the culture, the cells were lysed and the measurement of luciferase activity was performed using a Dual-Luciferase
Reporter Gene Assay system (available from Promega Corporation) (Measurement Group).
Similarly to the measurement group, as a control group, the measurement of luciferase activity was performed using pM (a vector containing residues 1-147 of GAL4 binding domain and not containing residues 204-505 of PPARγ ligand-binding domain in pM-hPPARγ) instead of the pM-hPPARγ. For each sample, the ratio between average luminescence intensities of the measurement group and the control group (n=4) (measurement group/control group) was calculated, and the luciferase activity relative to the non-treatment control was determined as the PPARγ ligand-binding activity of the sample.

Question: Which results are given for COc1ccc(-c2cc(=O)c3c(OC)c(OC)c(OC)c(OC)c3o2)cc1OC [nobiletin]?
Answer: Adiponectin mRNA expression amount (ratio to 36B4) ([1]; 5 μM): 265.1 ± 60.4; Adiponectin mRNA expression amount (ratio to 36B4) ([1]; 10 μM): 352.3 ± 28.5; Adiponectin mRNA expression amount (ratio to 36B4) ([1]; 1 μm): 164.9 ± 18.7; secretion of adiponectin in adipocytes, result in words ([1]; 3T3-L1 cultured with nobiletin versus non-treated control medium): enhance the secretion of adiponectin in the adipocytes significantly; Adiponectin secretion amount ([2]; KK-Ay mice, high-fat diet containing 0.02% nobiletin, serum 27 or 28 days after initiation of feeding, average ± standard error, n=6, control group 4.78 ± 0.096): 7.18 ± 0.50; adiponectin secretion amount, result in words ([2]; diabetic mice of NOB group versus control group): increase the adiponectin secretion amount in the adipocytes significantly; aP2 mRNA expression amount (ratio to 36B4) (aP2 mRNA in 3T3-L1; 5 μM): 193.7 ± 41.4; aP2 mRNA expression amount (ratio to 36B4) (aP2 mRNA in 3T3-L1; 10 μM): 273.1 ± 13.8; aP2 mRNA expression amount (ratio to 36B4) (aP2 mRNA in 3T3-L1; 1 μm): 155.8 ± 21.7; PPARγ ligand activity ([3]; 0.1 μM): 96.5 ± 10.8; PPARγ ligand activity ([3]; 1.0 μM): 156.8 ± 11.3; PPARγ ligand activity ([3]; 10 μM): 200.5 ± 55.1; PPARγ ligand activity ([3]; 50 μM): 246 ± 41.7; PPARγ activity, result in words ([3]; 0.1-50 μM, versus non-treatment control): increased significantly in keeping with the concentration of nobiletin
